# Experimental data: patent US20220144853A1, “IMIDAZOLINE DERIVATIVES AS CXCR4 MODULATORS” (Université de Paris, priority 2019, published 2022)
# Where a name gives a salt, the structure may show the parent alone.
# Tests used:
# [1] = tested on: IFN production by activated PBMCs; assay: IFN production by R848-activated PBMCs from healthy donors, twINNE reporter cell line; assay type: cell-based, human; settings: Homo sapiens, PBMC, means of two results over 2 healthy donors, R848 5 μg/mL, IT1t: mean over all experiments, read-out: IC50 of anti-inflammatory activity (IFN production)
# Outline: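 Human PBMCs (4.10^6/mL, RPMI/10% FBS, 37° C) stimulated with R848 at 5 μg/mL; supernatants collected after 24 h. Functional IFN measured on twINNE cells (ISRE-driven luciferase reporter) after 24 h culture by bioluminescence; IC50 from variable-slope dose-response fits.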
# IL-1β = assay: Cytokine production by R848-activated PBMCs, LEGENDplex Human Inflammation panel 1: IL-1β; assay type: cell-based; settings: Homo sapiens, PBMC, PBMCs from 2 healthy donors, R848 overnight, read-out: IC50 (μM) 1L-1β
# Experimental: (§1) 2) The PBMCs used herein were prepared as described in part A “immune cells preparation”, section 2) above. PBMCs were seeded at 4.10^6/mL. […] Cells were then stimulated with the TLR7/8 agonist resiquimod—R848 (Sigma-Aldrich, MO, USA) at 5 μg/mL.
# (§2) Cytokine expression levels were assessed using LEGENDplex Human inflammation panel 1 Kit (BioLegend, California, USA), which is a bead-based multiplex assay, using fluorescence-encoded beads. […] First, supernatants of R848-stimulated PBMCs were harvested after 24 h of stimulation and frozen at −20° C. for storage. Supernatants were dispensed into a 96-well V-bottom plate. Protocol pursued as per manufacturer recommendations (Manual for BioLegend LEGENDplex, Multi-Analyte Flow Assay Kit, Human Inflammation Panel 1, version 750000393_R01).
# IFN-γ = assay: Cytokine production by R848-activated PBMCs, LEGENDplex Human Inflammation panel 1: IFN-γ; assay type: cell-based; settings: Homo sapiens, PBMC, PBMCs from 2 healthy donors, R848 overnight
# Experimental: as §1, §2
# TNF-α = assay: Cytokine production by R848-activated PBMCs, LEGENDplex Human Inflammation panel 1: TNF-α; assay type: cell-based; settings: Homo sapiens, PBMC, PBMCs from 2 healthy donors, R848 overnight
# Experimental: as §1, §2
# IL-10 = assay: Cytokine production by R848-activated PBMCs, LEGENDplex Human Inflammation panel 1: IL-10; assay type: cell-based; settings: Homo sapiens, PBMC, PBMCs from 2 healthy donors, R848 overnight
# Experimental: as §1, §2
# IL-12p70 = assay: Cytokine production by R848-activated PBMCs, LEGENDplex Human Inflammation panel 1: IL-12p70; assay type: cell-based; settings: Homo sapiens, PBMC, PBMCs from 2 healthy donors, R848 overnight
# Experimental: as §1, §2
# IL-18 = assay: Cytokine production by R848-activated PBMCs, LEGENDplex Human Inflammation panel 1: IL-18; assay type: cell-based; settings: Homo sapiens, PBMC, PBMCs from 2 healthy donors, R848 overnight
# Experimental: as §1, §2
# IL-23 = assay: Cytokine production by R848-activated PBMCs, LEGENDplex Human Inflammation panel 1: IL-23; assay type: cell-based; settings: Homo sapiens, PBMC, PBMCs from 2 healthy donors, R848 overnight
# Experimental: as §1, §2
# [2] = tested on: IL-1β, IFN-γ, TNF-α, IL-10, IL-12p70, IL-18 and IL-23; assay: Cytokine production by R848-activated PBMCs, LEGENDplex: statements on all inhibited cytokines together; assay type: cell-based; settings: Homo sapiens, PBMC, PBMCs from two healthy donors, read-out: IC50 on the expression of cytokines, on all such cytokines
# Experimental: as §1, §2
structure (smiles),measurement,setting,value
"CC1(C)CN=C(SCC2=CSC3=N[C@H]4CCCC[C@@H]4N23)N1 (racemic) [Example 7, trans-3-(((4,4-dimethyl-4,5-dihydro-1H-imidazol-2-yl)thio)methyl)-4a,5,6,7,8,8a-hexahydrobenzo[4,5]imidazo[2,1-b]thiazole dihydrochloride]",IC50,[1],≤ 10 µM
same,IC50,IL-1β,9.9 µM
same,IC50,IFN-γ,9.8 µM
same,IC50,TNF-α,20 µM
same,IC50,IL-10,5.6 µM
same,IC50,IL-12p70,6.7 µM
same,IC50,IL-18,4.2 µM
same,IC50,IL-23,2.9 µM
same,IC50,[2],≤ 20 µM
"CC1(C)CN2C(CCCSC3=NCC(C)(C)N3)=CSC2=N1.Cl.Cl [Example 64, 3-(3-((5,5-dimethyl-4,5-dihydro-1H-imidazol-2-yl)thio)propyl)-6,6-dimethyl-5,6-dihydroimidazo[2,1-b]thiazole dihydrochloride]",IC50,[1],≥ 31 µM
same,melting point,,85 to 95 °C
"CC1(C)CN2C(CSC3=NCC(Cc4ccccc4)N3)=CSC2=N1 (centres unmarked) [Example 17, 3-(((5-benzyl-4,5-dihydro-1H-imidazol-2-yl)thio)methyl)-6,6-dimethyl-5,6-dihydroimidazo[2,1-b]thiazole dihydrochloride]",IC50,[1],≤ 10 µM
same,IC50,IL-1β,3.6 µM
same,IC50,IFN-γ,3.2 µM
same,IC50,TNF-α,4.6 µM
same,IC50,IL-10,2.7 µM
same,IC50,IL-12p70,0.34 µM
same,IC50,IL-18,0.54 µM
same,IC50,IL-23,2.2 µM
same,IC50,[2],≤ 20 µM
"CC1(C)CN2C(CSC3=N[C@@H]4CCCC[C@H]4N3)=CSC2=N1 [Example 3, 3-((((3aR,7aR)-3a,4,5,6,7a-hexahydro-1H-benzo[d]imidazol-2-yl)thio)methyl)-6,6-dimethyl-5,6-dihydroimidazo[2,1-b]thiazole dihydrochloride]",IC50,[1],≤ 10 µM
same,IC50,IL-1β,12 µM
same,IC50,IFN-γ,7.2 µM
same,IC50,TNF-α,11 µM
same,IC50,IL-10,11 µM
same,IC50,IL-12p70,2.6 µM
same,IC50,IL-18,6.9 µM
same,IC50,IL-23,1.7 µM
same,IC50,[2],≤ 20 µM
"CC1(C)CN=C2SC=C(CSC3=NCC(C)(C)N3)N2C1 (as salt: hydrochloride) [Example 34, 3-(((5,5-dimethyl-4,5-dihydro-1H-imidazol-2-yl)thio)methyl)-6,6-dimethyl-6,7-dihydro-5H-thiazolo[3,2-a]pyrimidine dihydrochloride]",melting point,,169 to 175 °C
"C1=C(CSC2=NCCCN2)N2CCCN=C2S1 (as salt: hydrochloride) [Example 29, 3-(((1,4,5,6-tetrahydropyrimidin-2-yl)thio)methyl)-6,7-dihydro-5H-thiazolo[3,2-a]pyrimidine dihydrochloride]",melting point,,> 250 °C
"C1=C(CSC2=NCCCN2)N2CCN=C2S1 (as salt: hydrochloride) [Example 35, 3-(((1,4,5,6-tetrahydropyrimidin-2-yl)thio)methyl)-5,6-dihydroimidazo[2,1-b]thiazole dihydrochloride]",melting point,,100 to 102 °C
"CC1(C)CN2C(CSC3=NCCCCN3)=CSC2=N1 (as salt: hydrochloride) [Example 12, 6,6-dimethyl-3-(((4,5,6,7-tetrahydro-1H-1,3-diazepin-2-yl)thio)methyl)-5,6-dihydroimidazo[2,1-b]thiazole dihydrochloride]",melting point,,> 250 °C
"CC1(C)CN2C(CSC3=N[C@@H]4CCCC[C@H]4N3)=CSC2=N1 (as salt: hydrochloride) [Example 3, 3-((((3aR,7aR)-3a,4,5,6,7a-hexahydro-1H-benzo[d]imidazol-2-yl)thio)methyl)-6,6-dimethyl-5,6-dihydroimidazo[2,1-b]thiazole dihydrochloride]",melting point,,65 to 75 °C
"CC1(C)CN=C(SCC2=CSC3=N[C@H]4CCCC(C4)N23)N1 (racemic) (as salt: hydrochloride) [Example 23, cis-3-(((5,5-dimethyl-4,5-dihydro-1H-imidazol-2-yl)thio)methyl)-6,7,8,9-tetrahydro-5H-5,9-methanothiazolo[3,2-a][1,3]diazocine dihydrochloride]",melting point,,240 to 245 °C
"CC(C)[C@@H]1N=C(SCC2=CSC3=NC(C)(C)CN23)N[C@H]1C(C)C (as salt: hydrochloride) [Example 58, 3-((((4S,5S)-4,5-diisopropyl-4,5-dihydro-1H-imidazol-2-yl)thio)methyl)-6,6-dimethyl-5,6-dihydroimidazo[2,1-b]thiazole dihydrochloride]",melting point,,154 to 160 °C
"CN1CCN=C1SCC1=CSC2=NC3CCCCC3N12 (racemic) [Example 63, trans-3-(((1-methyl-4,5-dihydro-1H-imidazol-2-yl)thio)methyl)-4a,5,6,7,8,8a-hexahydrobenzo[4,5]imidazo[2,1-b]thiazole dihydrochloride]",IC50,[1],≤ 10 µM
same,IC50,IL-1β,2.8 µM
same,IC50,IFN-γ,2.7 µM
same,IC50,IL-12p70,1.2 µM
same,IC50,IL-18,1.3 µM
same,IC50,IL-23,0.69 µM
"CC1(C)CN=C(SCC2=CSC3=NC(Cc4ccccc4)CN23)N1 (centres unmarked) [Example 18, 6-benzyl-3-(((5,5-dimethyl-4,5-dihydro-1H-imidazol-2-yl)thio)methyl)-5,6-dihydroimidazo[2,1-b]thiazole dihydrochloride]",IC50,[1],10 to 31 µM
same,IC50,IL-1β,5.6 µM
same,IC50,IFN-γ,6.1 µM
same,IC50,TNF-α,7.9 µM
same,IC50,IL-10,3.7 µM
same,IC50,IL-12p70,3.6 µM
same,IC50,IL-18,0.2 µM
same,IC50,IL-23,2.9 µM
same,IC50,[2],≤ 20 µM
"CCCCC1CN2C(CSC3=NCC(C)(C)N3)=CSC2=N1 (centres unmarked) (as salt: hydrochloride) [Example 19, 6-butyl-3-(((4,4-dimethyl-4,5-dihydro-1H-imidazol-2-yl)thio)methyl)-5,6-dihydroinidazo[2,1-b]thiazole dihydrochloride]",melting point,,210 to 218 °C
"CC1(C)CN=C(SCC2=CSC3=NCCCCN23)N1 (as salt: hydrochloride) [Example 15, 3-(((5,5-dimethyl-4,5-dihydro-1H-imidazol-2-yl)thio)methyl)-5,6,7,8-tetrahydrothiazolo[3,2-a][1,3]diazepine dihydrochloride]",melting point,,244 to 247 °C
"CC(C)C1CN=C(SCC2=CSC3=NC(C)(C)CN23)N1 (centres unmarked) (as salt: hydrochloride) [Example 49, 3-(((5-isopropyl-4,5-dihydro-1H-imidazol-2-yl)thio)methyl)-6,6-dimethyl-5,6-dihydroimidazo[2,1-b]thiazole dihydrochloride]",melting point,,234 to 237 °C
"CC1(C)CN2C(CSC3=NCC4CCCCC4N3)=CSC2=N1 (centres unmarked) (as salt: hydrochloride) [Example 40, 6,6-dimethyl-3-(((1,4,4a,5,6,7,8,8a-octahydroquinazolin-2-yl)thio)methyl)-5,6-dihydroimidazo[2,1-b]thiazole dihydrochloride]",melting point,,245 to 249 °C
"C1=C(CSC2=N[C@@H]3CCCC[C@H]3N2)N2CCN=C2S1 (as salt: hydrochloride) [Example 44, 3-((((3aR,7aR)-3a,4,5,6,7,7a-hexahydro-1H-benzo[d]imidazol-2-yl)thio)methyl)-5,6-dihydroimidazo[2,1-b]thiazole dihydrochloride]",melting point,,230 to 233 °C
